In patent publication US20170333391A1, “METHOD FOR DELAYING THE ONSET OF PULMONARY FIBROSIS OR TREATING PULMONARY FIBROSIS” (EVERFRONT BIOTECH INC., priority 2016, published 2017):

Key:
[1] = test system: C57B/L6 mice injected with Bleomycin sulfate (inducer of pulmonary fibrosis); test: Lung tissue slice observation (H&E stain) in Bleomycin sulfate mice; type: in vivo; settings: compared to oil group
Method: 24 C57B/L6 mice (age: four weeks) were separated into four groups (6 mice in each group). Each group was respectively treated under the following conditions to conduct follow-up experiments: • (1) Control group (mice without pulmonary fibrosis; i.e., normal mice): 50 μl of PBS was administrated to each mouse by intratracheal injection, and then the mice were fed for 30 days; • (2) Oil group: 0.6 U/50 μl of Bleomycin sulfate (dissolved in PBS) was administrated to each mouse by intratracheal injection, and then 100 μl of olive oil was orally administrated to each mouse every day for 30 days; • (3) Low-dose group: 0.6 U/50 μl of Bleomycin sulfate (dissolved in PBS) was administrated to each mouse by intratracheal injection, and then compound (1) (10 mg/kg-body weight, prepared with olive oil to provide a final volume of 100 μl) was orally administrated to each mouse every day for 30 days; and • (4) High-dose group: 0.6 U/50 μl of Bleomycin sulfate (dissolved in PBS) was administrated to each mouse by intratracheal injection, and then compound (1) (50 mg/kg-body weight, prepared with olive oil to provide a final volume of 100 μl) was orally administrated to each mouse every day for 30 days.
After completing the measurement of the pulmonary function in Example 6, the mice were sacrificed. Pulmonary tissue samples were taken from the mice, and separated into two groups (each group comprised samples from the control group, oil group, low-dose group and high-dose group). One of the two groups was preserved at −20° C. for the follow-up experiment, and the other group was analyzed by hematoxylin-sosin stain (H&E stain).

[2] = test system: smad3 protein; test: smad3 protein in mouse pulmonary tissue, western blotting; type: in vivo, mice; settings: compared to oil group
Method: (§1) 24 C57B/L6 mice (age: four weeks) were separated into four groups (6 mice in each group). […]
(§2) The samples of mice pulmonary tissue provided by Example 7 and preserved at −20° C. were removed from storage, and then ground in liquid nitrogen. […] The expressions of TGF-β protein, smad3 protein and surfactant C in the samples of each group were measured with western blotting, wherein the actin served as an internal control.

[3] = test system: TGF-β protein; test: TGF-β protein in mouse pulmonary tissue, western blotting; type: in vivo, mice; settings: compared to oil group
Method: as §1, §2

[4] = test system: type I collagen; test: Type I collagen expression in TGF-β1-induced NHLF, western blotting (2-1); type: cell-based, human; settings: uninduced group = 1, TGF-β1-only group = 3.61
Method: Normal Human lung fibroblasts (NHLF) were seeded into 6 cm culture dishes at a density of 2×10^5 cells/dish, comprising a control group and three experimental groups (4 dishes in total). The cells were cultured until the next day, and then the mediums were removed. Each group was respectively treated under the following conditions to conduct follow-up experiments: • (1) Positive control group: cells were cultured in a FGM-2 medium containing 1% serum for 36 hours; • (2) Negative control group: cells were cultured in a FGM-2 medium containing 1% serum and TGF-β1 (5 ng/ml) for 36 hours; • (3) Low-dose group: cells were firstly cultured in a FGM-2 medium containing 1% serum and TGF-β1 (5 ng/ml) for 12 hours, and then compound (1) was added into the medium to provide a final concentration of 15 μg/ml; thereafter, the cells were cultured for another 24 hours; and • (4) High-dose group: cells were firstly cultured in a FGM-2 medium containing 1% serum and TGF-β1 (5 ng/ml) for 12 hours, and then compound (1) was added into the medium to provide a final concentration of 25 μg/ml; thereafter, the cells were cultured for another 24 hours.
Thereafter, the proteins in the cells of each group were extracted, and the expressions of type I collagen in the NHLF cells of each group were measured with western blotting, wherein the β-actin served as the internal control. […]

[5] = High-dose group, compound (1) 50 mg/kg orally daily 30 days
[6] = Low-dose group, compound (1) 10 mg/kg orally daily 30 days

SMILES: CCCC=C1OC(=O)c2ccccc21 [compound (1)]
- alveolar wall tissue thickness (H&E stain) [1, 5]: significantly thinner
- level of abnormal infiltration of pulmonary cells (H&E stain) [1, 5]: significantly less
- alveolar wall tissue thickness (H&E stain) [1, 6]: significantly thinner
- level of abnormal infiltration of pulmonary cells (H&E stain) [1, 6]: significantly less
- expression level of smad3 protein in pulmonary tissue [2, 5]: significantly lower
- expression level of smad3 protein in pulmonary tissue [2, 6]: significantly lower
- expression level of TGF-β protein in pulmonary tissue [3, 5]: significantly lower
- expression level of TGF-β protein in pulmonary tissue [3, 6]: significantly lower
- Relative expression level of the type I collagen (fold) ([4]; High-dose group: TGF-β1 5 ng/ml 12 h, then compound (1) 25 μg/ml 24 h): 1.83 fold
- Relative expression level of the type I collagen (fold) ([4]; Low-dose group: TGF-β1 5 ng/ml 12 h, then compound (1) 15 μg/ml 24 h): 3.56 fold
